Measurements: US8609870B2, “Treating various disorders using TrkB agonists” (Emory University, priority 2008, dated 2013)

Tests used:
TrkB = biological target: T1, TrkB (Mus musculus, UniProt P15209); experiment: TrkB activation in mouse brain after i.p. or oral administration; format: in vivo
T1 construct: Brain lysates were prepared and analyzed by immunoblotting; from tissue; host or cells: mouse brain
Protocol: Unless specifically described, brain tissues are fixed in 4% paraformaldehyde overnight followed by paraffin embedding. Sections of 5 μm are cut. For immunohistochemical staining, brain sections are deparaffinized in xylene and rehydrated in graded alcohols. Endogenous peroxidase activity are blocked by 3% hydrogen peroxide for 5 minutes and all slides are boiled in 10 mM sodium citrate buffer (pH 6.0) for 10 minutes. Phosphorylated Trk A, Trk A, phosphorylated Trk B, and Trk B are detected using specific antibodies and, e.g., a Zymed HistostainPlus AEC kit (Invitrogen; Carlsbad, Calif.). Slides then are counterstained with hematoxylin.
To assess whether an identified active compound provokes TrkB activation in the brain, mice are intraperitoneally injected with a dose of 5 mg/kg and analyzed at various time points. […] Further, whether the protein and mRNA levels of the neurotrophic receptors is altered after treatment with an identified active compound is measured.
(§1) Both Akt and Erk1/2 were robustly activated by these molecules as well). […] The minimal required drug concentration was about 100-250 nM (see FIG. 7, right panels). […] To assess whether deoxygedunin provokes TrkB activation in the brain, mice (i.p.) were injected with a dose of 5 mg/kg for various time points. […] To establish that deoxygedunin is orally bioactive in provoking TrkB activation, two to three month old C57BL/6J mice were orally injected with various doses of 7,8-dihydroxyflavone or deoxygedunin then sacrificed 2 to 4 hours after administration. Brain lysates were prepared and analyzed by immunoblotting (see FIG. 10).

BDNF −/− pups = experiment: Vestibular ganglion loss in BDNF −/− pups; format: in vivo, mouse
Protocol: The cochleae of various drug-treated pups (P1 or P2 BDNF +/+ and −/− pups) were first fixed through cardioperfusion of 4% paraformaldehyde (in PBS). Each cochlea was dissected out and postfixed in 1% osmium for one hour at room temperature. Samples were decalcified in 0.35 M EDTA (pH 7.5, in PBS) for 72 hours at 4° C., followed by gradual dehydration in graded alcohols, infiltrated, and embedded in epoxy resin with the conventional protocols. Consecutive cochlear sections (5 μm in thickness) were cut with a microtome (Microm HM335E, GmbH) along the axis of the modiolus. Sections were stained with toluidine blue. Vestibular ganglions were identified by their location in the auditory internal meatus with the basal cochlear turn and the cochlear modiolus as morphological reference landmarks.
To examine whether deoxygedunin activating TrkB involved endogenous BDNF, BDNF conditional knockout mice with BDNF gene deletion limited to cortex (thus allowing normal development) were used. Deoxygedunin (5 mg/kg) was intraperitoneally injected into the BDNF cortex conditional knockout mice and the mice were sacrificed at 4 hours. […] Mutant mice lacking BDNF were known to have severe deficiencies in coordination and balance, which have been associated with excessive degeneration in several sensory ganglia including the vestibular ganglion (Ernfors et al., Nature 368, 147-150 (1994)). To determine whether deoxygedunin rescued this loss of vestibular ganglions in BDNF −/− pups, conventional BDNF +/− mice were bred with the same genotype mice. Deoxygedunin (5 mg/kg, i.p.) was administered to the pregnant mice at day E7.5 until birth.

hippocampal neurons = experiment: Glutamate-triggered apoptosis in hippocampal neurons (MR(DEVD)2 / condensed nuclei); format: cell-based; settings: 0.5 μM preincubated 30 min, then 50 μM glutamate 16 h
Protocol: To create and test reporter cell lines. In order to identify small molecules that mimic BDNF and activate TrkB, TrkB stably transfected murine cell lines are created. The T48 and T62 cell lines are created by transfecting basal forebrain SN56 cells, which express negligible TrkB, with a TrkB expression construct. To test expression of TrkB, the cells are treated with BDNF, which is predicted to result in strong phosphorylation of Trk-490 and Akt activation in comparison to the TrkA NTR stably expressing T17 cell line indicating expression of TrkB. To test resistance to apoptosis, the SN56 cells and the T48 cell line are either untreated or treated with BDNF, and then are subjected to an apoptotic assay. The apoptotic assay involves treating the cells with 0.75 μM Staurosporine for 9 hours, and 1 hour before completing the experiment, the cells are treated with 10 μM MR (DEVD)2. The cells then are fixed with 4% paraformaldehyde for 15 minutes, washed with phosphate buffered saline (PBS), and incubated with Hoechst 33342 for 10 minutes. Cover slides are washed with PBS, mounted, and then the cells are examined using a fluorescent microscope to see which cells turn red upon caspase cleavage.
To compare the apoptosis inhibitory activity of identified active compounds, the compounds are preincubated with SN56 and T48 cells, and subsequently are subjected to the fluorescent apoptotic assay as described above. To examine whether these identified active compounds promote neuronal survival, hippocampal neurons are prepared and the cultures are pretreated with the identified active compounds for 30 minutes, followed by treatment with 50 μM glutamate for 16 hours.
Using a cell-based screen as described above in Example 1 (based on the anti-apoptotic action of TrkB signaling) and the chemical library from the Spectrum Collection (described above), 66 positive hits were generated, four of which were gedunin derivatives. […] In this assay, neurons with both cleaved caspase (MR (DEVD)2 red cells) and condensed nuclei (DAPI staining) were counted as apoptotic cells. […]

TrkA = TrkA (Mus musculus, UniProt Q3UFB7); experiment: TrkA phosphorylation in mouse brain after i.p. injection; format: in vivo; set-up: endogenous in cells; settings: mice, 5 mg/kg i.p.
Erk1/2 and Akt = Erk1/2 and Akt activation in hippocampal neurons (Western blot); format: cell-based; settings: hippocampal neurons
Protocol: BDNF binding to TrkB induces its autophosphorylation and, subsequently, activation of downstream kinase pathways including MAPK and PI3/Akt. To explore whether an identified active compound triggers TrkB activation, immunofluorescent staining on hippocampal neurons with anti-phospho TrkB antibody is conducted. To examine whether an identified active compound stimulates TrkB-mediated downstream signaling cascades, Western analysis is performed and the activation of Akt and Erk also is monitored. To test whether the stimulatory effect of an identified active compound is mediated through TrkB, cells are either untreated or treated with K252a, a selective inhibitor of the tyrosine kinase activity of the Trk family of neutrophin receptors. Cells treated with K252a block TrkB tyrosine phosphorylation in cells exposed to an identified active compound. To probe the time course of TrkB activation triggered by an identified active compound, hippocampal neurons are treated with an identified active compound at 500 nM and phosphorylation of Erk and Akt is determined over time by Western analysis. Whether stimulation of Erk and Akt by an identified active compound occurs in a dose dependent manner also is determined.
as §1

T1 sequence (P15209 32-821): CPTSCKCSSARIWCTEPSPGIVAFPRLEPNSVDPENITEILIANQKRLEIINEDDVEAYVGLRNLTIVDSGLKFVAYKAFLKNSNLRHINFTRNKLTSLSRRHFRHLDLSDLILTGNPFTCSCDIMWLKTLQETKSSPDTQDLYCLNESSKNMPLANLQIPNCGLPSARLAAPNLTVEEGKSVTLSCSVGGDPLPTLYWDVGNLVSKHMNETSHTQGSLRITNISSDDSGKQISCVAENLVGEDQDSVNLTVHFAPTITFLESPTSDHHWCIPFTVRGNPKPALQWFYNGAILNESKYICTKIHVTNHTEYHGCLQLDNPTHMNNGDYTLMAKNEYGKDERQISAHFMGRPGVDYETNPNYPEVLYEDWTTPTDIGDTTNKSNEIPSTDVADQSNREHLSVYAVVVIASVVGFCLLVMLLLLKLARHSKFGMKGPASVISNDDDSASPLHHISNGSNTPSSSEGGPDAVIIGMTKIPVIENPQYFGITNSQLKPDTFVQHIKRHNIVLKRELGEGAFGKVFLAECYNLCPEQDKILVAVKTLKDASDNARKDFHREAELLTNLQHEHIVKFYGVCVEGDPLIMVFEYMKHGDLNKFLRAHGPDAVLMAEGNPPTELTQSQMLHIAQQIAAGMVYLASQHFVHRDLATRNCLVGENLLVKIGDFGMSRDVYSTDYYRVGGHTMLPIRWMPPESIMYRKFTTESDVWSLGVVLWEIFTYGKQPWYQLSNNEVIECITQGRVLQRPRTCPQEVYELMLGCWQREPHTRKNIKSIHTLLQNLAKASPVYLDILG
Chain of TrkA (Q3UFB7 34-799): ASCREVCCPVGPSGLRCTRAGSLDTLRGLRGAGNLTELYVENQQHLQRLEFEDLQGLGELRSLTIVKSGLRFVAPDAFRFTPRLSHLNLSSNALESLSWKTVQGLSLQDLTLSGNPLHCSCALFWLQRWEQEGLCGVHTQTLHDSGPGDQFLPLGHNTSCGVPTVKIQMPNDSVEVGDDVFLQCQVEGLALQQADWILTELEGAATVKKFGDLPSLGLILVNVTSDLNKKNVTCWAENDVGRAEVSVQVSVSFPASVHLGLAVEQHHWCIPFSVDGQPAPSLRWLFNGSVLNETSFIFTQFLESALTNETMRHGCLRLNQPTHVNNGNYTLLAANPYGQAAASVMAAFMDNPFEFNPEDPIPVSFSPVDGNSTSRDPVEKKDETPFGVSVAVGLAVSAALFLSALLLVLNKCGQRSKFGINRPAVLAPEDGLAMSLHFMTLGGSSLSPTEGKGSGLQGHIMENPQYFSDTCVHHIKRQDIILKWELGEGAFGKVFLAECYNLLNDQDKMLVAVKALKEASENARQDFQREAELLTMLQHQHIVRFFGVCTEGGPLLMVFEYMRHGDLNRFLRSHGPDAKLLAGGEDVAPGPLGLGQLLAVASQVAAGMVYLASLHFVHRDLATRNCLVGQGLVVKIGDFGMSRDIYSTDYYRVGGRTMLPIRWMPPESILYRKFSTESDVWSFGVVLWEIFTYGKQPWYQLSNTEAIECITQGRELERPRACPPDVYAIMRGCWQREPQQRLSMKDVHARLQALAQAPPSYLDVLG

With `CC(=O)O[C@@H]1C[C@H]2C(C)(C)C(=O)C=C[C@]2(C)[C@H]2CC[C@]3(C)C(=CC(=O)O[C@H]3c3ccoc3)[C@@]21C` [deoxygedunin] the “time after injection at which TrkB was phosphorylated in the brain” value (TrkB; mice, 5 mg/kg i.p.) was 2 h, the “time of peak TrkB phosphorylation in the brain” value (TrkB; mice, 5 mg/kg i.p.) was 4 to 8 h and the blood-brain barrier penetration (TrkB; mice, 5 mg/kg i.p., inferred from brain TrkB phosphorylation) was “penetrated the blood-brain barrier”. The “TrkB activation in hippocampus (immunohistochemistry staining)” value (TrkB; mouse hippocampus upon treatment) was “robust TrkB activation in hippocampus”, the “vestibular ganglia in stained inner ear sections” value (BDNF −/− pups; BDNF mutant pups, 5 mg/kg i.p.) was “displayed intact vestibular ganglia” and the “vestibular ganglia detected (quantitative analysis)” value (BDNF −/− pups; BDNF −/− pups, 5 mg/kg i.p. to pregnant mice from E7.5 and to pups) was 42.2±6.3%. For the same compound, the “survival of BDNF −/− pups under treatment” value (BDNF −/− pups; neonatal pups receiving 5 mg/kg deoxygedunin) was “continued dying at P1 or P2”, the “protective effect (apoptosis inhibitory activity)” value (hippocampal neurons) was “most robust protective effect” and the “TrkA phosphorylation in the brain” value (TrkA) was “not TrkA”. For the same compound, the “minimal required drug concentration for Erk1/2 and Akt activation” value (Erk1/2 and Akt) was 100 to 250 nM and the “Erk1/2 and Akt activation” value (Erk1/2 and Akt; time course and dose dependency) was “prominently provoked both Erk1/2 and Akt activation”.
